According to patent US5389643A, “Aminobenzoic acid derivatives useful for treating gastro-intestinal conditions” (Eisai Co., Ltd., priority 1992, dated 1995):
Structures can show the parent of a compound that is named as a salt.

Experiments:
[1] = molecular target: T1, 2-methylserotonin-induced contraction of the ileum (5-HT3 antagonism) (Cavia porcellus, UniProt O70212); assay: Antagonism against 2-methylserotonin-induced contraction or systole of ileum; format: cell-based, guinea pig (Hartley male); settings: test compound added 30 minutes before 2-methylserotonin; nonterminal ileum, 37° C.; read-out: pA2 (converted)
T1 construct: from tissue; host or cells: isolated nonterminal ileum of male Hartley guinea pig
T1 sequence (O70212 20-490): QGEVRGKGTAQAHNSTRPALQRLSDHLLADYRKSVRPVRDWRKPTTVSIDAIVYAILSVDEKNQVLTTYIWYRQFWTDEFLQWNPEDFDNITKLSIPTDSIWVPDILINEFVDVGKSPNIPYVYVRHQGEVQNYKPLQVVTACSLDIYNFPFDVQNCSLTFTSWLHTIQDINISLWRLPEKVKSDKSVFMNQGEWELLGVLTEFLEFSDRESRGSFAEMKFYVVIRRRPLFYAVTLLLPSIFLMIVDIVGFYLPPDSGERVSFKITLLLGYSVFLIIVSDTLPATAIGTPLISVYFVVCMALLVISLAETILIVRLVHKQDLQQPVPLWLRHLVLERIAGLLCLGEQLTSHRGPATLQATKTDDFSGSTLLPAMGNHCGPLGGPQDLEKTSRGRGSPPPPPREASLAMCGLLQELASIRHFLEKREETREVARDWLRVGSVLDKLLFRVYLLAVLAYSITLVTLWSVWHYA
Protocol: Antagonism against 2-methylserotonin-induced contraction or systole of ileum
This experiment was made according to the method of Sanger et al. [see Eur. J. Pharmacol., 159, 113-124 (1989)]. The nonterminal ileum of a Hartley male guinea pig was suspended in the Krebs-Henseleit solution (37° C.) by applying a load of 0.5 g to the end of the ileum and a gaseous mixture comprising 95% of oxygen and 5% of carbon dioxide was passed through the solution. The contraction of the ileum was isometrically determined. After allowing the ileum to stand for one or more hours for stabilization, a solution of a test compound was added to the solution, and after 30 minutes, 2-methylserotonin was noncumulatively added. The pA2 value was calculated from the rightward shift of the dose-response curve of the 2-methylserotonin-induced contraction caused by the test compound according to the method of Rossum et al. [see Arch. Int. Pharmacodyn., 143, 299(1963)]. BRL 24682 was used as a control in this experiment.

[2] = test system: cisplatin-induced vomiting; assay: Activity against cisplatin-induced vomiting of beagle; format: in vivo; settings: intravenous, one hour after cisplatin 3 mg/kg, 5-hour observation
Protocol: Activity against cisplatin-induced vomiting of beagle
Beagles weighing 7 to 12 kg were used. 3 mg/kg of cisplatin (a product of Sigma) (1 ml/kg of physiological saline) was administered to each beagle through the vein of its forefoot. One hour after the administration of cisplatin, physiological saline (0.2 ml/kg) was administered to a control group of beagles and a solution of a test compound in physiological saline was administered to a test group of beagles, each through the vein of the other forefoot. The frequency of vomiting observed over a 5-hour period from the administration of cisplatin was recorded and the inhibitory ratio of the test compound was calculated according to the following formula.

[3] = test system: gastric emptying function; assay: Activity for raising gastric emptying function; format: in vivo, Fischer male rats; settings: oral (5 ml/kg), one hour before test food; versus control rat
Protocol: Activity for raising gastric emptying function
This experiment was made according to the method of Decktot et al. [see Eur. J. Pharmacol., 147, 313-316 (1988)]. Fischer male rats (weight: 160 to 180 g) were fasted for 18 hours before 3 ml of a test food comprising methylcellulose, beef broth, casein, sugar and corn starch was orally administered to each rat. One hour after the administration, the stomach was extirpated from each rat. The gastric emptying ratio was calculated from the weight of the test food remaining in the stomach. The ratio of rise of the gastric emptying function was determined by comparing the gastiric emptying ratio of a medicated rat with that of a control rat which had not administered any test compounds. Each test compound (5 ml/kg) was orally administered one hour before the administration of the test food. BRL 24682 was used as a control in this experiment.

[4] = test system: contraction of guinea pig ileum induced by electrical field stimulation (acetylcholine release); assay: Effect of increasing contraction of guinea pig ileum induced by electrical field stimulation; format: cell-based; settings: electrical field stimulation once per 10 seconds; cumulative addition at intervals of 10 minutes; 37° C.; listed as 4 (+)-isomer, hydrochloride; read-out: Min. concn. causing increment of ileal contraction
Protocol: Effect of increasing contraction of guinea pig ileum induced by electrical field stimulation
This experiment was made according to the method of Sanger et al. [see Br. J. Pharmacol., 91, 77-87 (1987)]. The longitudinal muscle of the nonterminal ileum of a guinea pig was separated and vertically suspended in the Krebs-Henseleit solution (37° C.) in a Magnus tube by applying a load of 0.5 g to the end of the muscle. A mixed gas comprising 95% of oxygen and 5% of carbon dioxide was passed through the solution. The contraction of the muscle was isometrically determined. Electrical field stimulation was applied to the muscle by the use of a platinum electrode once per 10 seconds to induce the contraction of the muscle. The contraction was caused through the release of acetylcholine. After the muscle had been stabilized, a solution of a test compound was cumulatively added into the Magnus tube at intervals of 10 minutes. The effect of the test compound is represented by percentage based on the initial contraction. The minimum concentration of each test compound at which an increment was found in the contraction due to the release of acetylcholine is shown in Table 4.

rat = assay: Oral toxicity in rat, one week; format: in vivo; settings: dose of up to 30 mg/kg

## CC#CC(C)Oc1cc(N)c(Cl)cc1C(=O)N[C@H]1C[C@H]2CC[C@@H](C1)N2C (single isomer, unassigned; (-)) [Example 4, (-)-endo-4-Amino-5-chloro-N-(8-methyl-8-azabicyclo[3.2.1]oct-3-yl)-2-{(3-pentyn-2-yl)oxy)benzamide hydrochloride]
[1]
  Kb: 2.69 nM
[2]; 0.03 mg/kg
  Inhibitory ratio against cisplatin-induced vomiting: 37%
[2]; 0.1 mg/kg
  Inhibitory ratio against cisplatin-induced vomiting: 78%
[3]
  Ratio of rise of gastric emptying function: 31.1%
[4]
  minimal effective concentration: 0.056 µM
rat
  toxicity on oral administration for one week: no toxicity was exhibited in a dose of up to 30 mg/kg
